Data as given in ChEMBL document CHEMBL3727356, “Therapeutic compounds and compositions” (2014).

Assays:
[1] = molecular target: Pyruvate kinase PKLR (Homo sapiens, UniProt P30613, R510Q); test: Activation of PKR R510Q mutant (unknown origin) incubated for 60 mins in presence of ADP, PEP and NADH by Spectraax microplate reader based assay
[2] = molecular target: Pyruvate kinase PKLR (Homo sapiens, UniProt P30613, R532W); test: Activation of PKR R532W mutant (unknown origin) incubated for 60 mins in presence of ADP, PEP and NADH by Spectraax microplate reader based assay
Chain of Pyruvate kinase PKLR (Homo sapiens, UniProt P30613, R532W) (P30613 whole entry R532W): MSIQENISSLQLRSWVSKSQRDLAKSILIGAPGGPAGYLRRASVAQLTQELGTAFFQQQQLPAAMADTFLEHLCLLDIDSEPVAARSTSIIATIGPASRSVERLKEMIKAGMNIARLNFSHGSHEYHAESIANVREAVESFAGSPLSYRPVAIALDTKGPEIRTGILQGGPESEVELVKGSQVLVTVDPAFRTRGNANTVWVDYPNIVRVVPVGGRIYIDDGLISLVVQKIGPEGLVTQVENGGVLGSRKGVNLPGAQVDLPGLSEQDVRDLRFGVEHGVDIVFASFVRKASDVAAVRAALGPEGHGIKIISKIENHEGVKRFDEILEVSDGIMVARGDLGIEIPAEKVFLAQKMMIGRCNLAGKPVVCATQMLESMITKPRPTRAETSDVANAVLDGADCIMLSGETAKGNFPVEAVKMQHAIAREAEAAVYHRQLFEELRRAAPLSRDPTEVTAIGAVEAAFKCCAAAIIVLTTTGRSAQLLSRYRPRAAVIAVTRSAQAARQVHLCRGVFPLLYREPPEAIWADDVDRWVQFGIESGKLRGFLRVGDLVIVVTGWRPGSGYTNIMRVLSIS

[3] = molecular target: T1, Pyruvate kinase PKLR (Homo sapiens, UniProt P30613); test: Activation of wild type PKR (unknown origin) incubated for 60 mins in presence of ADP, PEP and NADH by Spectraax microplate reader based assay
T1 sequence (P30613 whole entry): as the sequence (P30613 whole entry R532W) above, with W532R counted along it

[4] = molecular target: T1, Pyruvate kinase PKLR; test: Activation of wild type PKR (unknown origin) by cell based assay

Chain of Pyruvate kinase PKLR (Homo sapiens, UniProt P30613, R510Q) (P30613 whole entry R510Q): as the sequence (P30613 whole entry R532W) above, with R510Q, W532R counted along it

Row | SMILES | AC50 [1] [nM] | AC50 [2] [nM] | AC50 [3] [nM] | AC50 [4] [nM]
1 | Cn1ccc(CC2(O)CCN(C(=O)c3ccc(NS(=O)(=O)c4cccc5nccnc45)cc3)CC2)n1 | > 10000 | – | – | –
2 | Nc1nc(CC2(O)CCN(C(=O)c3ccc(NS(=O)(=O)c4cccc5scnc45)cc3)CC2)cs1 | > 10000 | – | – | –
3 | O=C(c1ccc(NS(=O)(=O)c2c(F)ccc3ncsc23)cc1)N1CCC(O)(c2ccccc2Cl)CC1 | > 10000 | – | – | –
4 | O=C(c1ccc(NS(=O)(=O)c2cccc3c2OCCO3)cc1)N1CCC(O)(Cc2ccccc2)CC1 | – | < 100 | < 100 | < 100
5 | Cc1noc(C)c1CC1(O)CCN(C(=O)c2ccc(NS(=O)(=O)c3cccc4nccnc34)cc2)CC1 | – | < 100 | < 100 | < 100
6 | O=C(c1ccc(NS(=O)(=O)c2cccc3scnc23)cc1)N1CCC(O)(c2cn[nH]c2)CC1 | > 10000 | – | – | –
7 | O=C(c1ccc(NS(=O)(=O)c2cccc3cccnc23)cc1)N1CCC(O)(c2cnsc2)CC1 | – | < 100 | < 100 | < 100
8 | Cc1cccc(CC2(O)CCN(C(=O)c3ccc(NS(=O)(=O)c4cccc5cccnc45)cc3)CC2)c1 | – | < 100 | < 100 | < 100
9 | COc1cccc(CC2(O)CCN(C(=O)c3ccc(NS(=O)(=O)c4cccc5cccnc45)cc3)CC2)c1 | – | < 100 | < 100 | < 100
10 | O=C(c1ccc(NS(=O)(=O)c2cccc3cccnc23)c(F)c1F)N1CCC(O)(c2ccccc2)CC1 | > 10000 | – | – | –
11 | O=C(c1ccc(NS(=O)(=O)c2cccc3cccnc23)cc1)N1CCC(O)(c2ncccc2C(F)(F)F)CC1 | – | < 100 | < 100 | < 100
12 | O=C(c1ccc(NS(=O)(=O)c2cccc3cccnc23)cn1)N1CCC(O)(c2ccccc2)CC1 | > 10000 | – | – | –
13 | O=C(c1ccc(NS(=O)(=O)c2cccc3cccnc23)c(Cl)c1)N1CCC(O)(c2ccccc2Cl)CC1 | – | < 100 | < 100 | < 100
14 | Cc1cc(C(=O)N2CCC(O)(c3cccc(F)c3F)CC2)ccc1NS(=O)(=O)c1cccc2nccnc12 | – | < 100 | < 100 | < 100
15 | Cn1nccc1CC1(O)CCN(C(=O)c2ccc(NS(=O)(=O)c3cccc4nccnc34)cc2)CC1 | – | < 100 | < 100 | < 100
16 | Cc1cc(NS(=O)(=O)c2cccc3cccnc23)ccc1C(=O)N1CCC(O)(c2ccccc2Cl)CC1 | – | < 100 | < 100 | < 100
17 | CCCC1(O)CCN(C(=O)c2ccc(NS(=O)(=O)c3cccc4cccnc34)cc2)CC1 | – | < 100 | < 100 | < 100
18 | O=C(c1ccc(NS(=O)(=O)c2cccc3cccnc23)cc1)N1CCC(O)(c2ccccc2)CC1 | – | < 100 | < 100 | < 100
19 | O=C(c1ccc(NS(=O)(=O)c2cccc3cccnc23)cc1)N1CCC(O)(c2ccncc2)CC1 | – | < 100 | < 100 | < 100
20 | O=C(c1ccc(NS(=O)(=O)c2cccc3cccnc23)cc1)N1CCC(O)(c2cccc(F)c2)CC1 | – | < 100 | < 100 | < 100

Row | SMILES | AC50 [1] [nM] | AC50 [2] [nM] | AC50 [3] [nM] | AC50 [4] [nM]
21 | O=C(c1ccc(NS(=O)(=O)c2cccc3nccnc23)cc1)N1CCC(O)(c2ccccc2Cl)CC1 | – | < 100 | < 100 | < 100
22 | CC(F)(F)CCC1(O)CCN(C(=O)c2ccc(NS(=O)(=O)c3cccc4nc(N)cnc34)cc2)CC1 | – | < 100 | < 100 | < 100
23 | O=C(c1ccc(NS(=O)(=O)c2cccc3cccnc23)cc1)N1CCC(O)(c2cccnc2C(F)(F)F)CC1 | – | < 100 | < 100 | < 100
24 | O=C(c1ccc(NS(=O)(=O)c2cccc3cccnc23)cc1)N1CCC(O)(CCC(F)F)CC1 | – | < 100 | < 100 | < 100
25 | O=C(c1ccc(NS(=O)(=O)c2cccc3cccnc23)cc1F)N1CCC(O)(c2ccccc2Cl)CC1 | – | < 100 | < 100 | < 100
26 | CC(C)CC1(O)CCN(C(=O)c2ccc(NS(=O)(=O)c3cccc4c3OCO4)cc2)CC1 | – | < 100 | < 100 | < 100
27 | O=C(c1ccc(NS(=O)(=O)c2cccc3cccnc23)cc1)N1CCC(O)(c2cccc(C(F)(F)F)n2)CC1 | – | < 100 | < 100 | < 100
28 | O=C(c1ccc(NS(=O)(=O)c2cccc3cccnc23)cc1)N1CCC(O)(c2ncccc2Cl)CC1 | – | < 100 | < 100 | < 100
29 | O=C(c1ccc(NS(=O)(=O)c2cccc3scnc23)cc1)N1CCC(O)(c2cccc(F)c2F)CC1 | – | < 100 | < 100 | < 100
30 | O=C(c1ccc(NS(=O)(=O)c2cccc3cccnc23)cc1)N1CCC(O)(c2cccc(C(F)(F)F)c2)CC1 | – | < 100 | < 100 | < 100
31 | O=C(c1ccc(NS(=O)(=O)c2ccc(F)c3cccnc23)cc1)N1CCC(O)(c2ccccc2Cl)CC1 | – | < 100 | < 100 | < 100
32 | O=C(c1ccc(NS(=O)(=O)c2cccc3cccnc23)cc1)N1CCC(O)(Cc2cccc(F)c2F)CC1 | – | < 100 | < 100 | < 100
33 | O=C(c1ccc(NS(=O)(=O)c2cccc3cccnc23)cc1)N1CCC(O)(c2ccccc2F)CC1 | – | < 100 | < 100 | < 100
34 | O=C(c1ccc(NS(=O)(=O)c2cccc3cccnc23)cc1)N1CCC(O)(c2ccncc2Cl)CC1 | – | < 100 | < 100 | < 100
35 | CC(C)CC1(O)CCN(C(=O)c2ccc(NS(=O)(=O)c3ccc(F)c4cccnc34)cc2)CC1 | – | < 100 | < 100 | < 100
36 | N#Cc1cc(NS(=O)(=O)c2cccc3cccnc23)ccc1C(=O)N1CCC(O)(c2ccccc2Cl)CC1 | – | < 100 | < 100 | < 100
37 | O=C(c1ccc(NS(=O)(=O)c2cccc3nccnc23)cc1)N1CCC(O)(CCCC(F)F)CC1 | – | < 100 | < 100 | < 100
38 | O=C(c1ccc(NS(=O)(=O)c2cccc3cccnc23)cc1)N1CCC(CO)(Cc2ccccc2)CC1 | – | < 100 | < 100 | < 100
39 | CC(C)CC1(O)CCN(C(=O)c2ccc(NS(=O)(=O)c3cccc4nccnc34)cc2OC(F)F)CC1 | – | < 100 | < 100 | < 100
40 | CC(C)C1(O)CCN(C(=O)c2ccc(NS(=O)(=O)c3cccc4cccnc34)cc2)CC1 | – | < 100 | < 100 | < 100

Row | SMILES | AC50 [1] [nM] | AC50 [2] [nM] | AC50 [3] [nM] | AC50 [4] [nM]
41 | Cc1nc2c(S(=O)(=O)Nc3ccc(C(=O)N4CCC(O)(c5ccccc5Cl)CC4)cc3)cccc2o1 | – | < 100 | < 100 | < 100
42 | CC(C)(C)C1(O)CCN(C(=O)c2ccc(NS(=O)(=O)c3cccc4cccnc34)cc2)CC1 | – | < 100 | < 100 | < 100
43 | O=C(c1ccc(NS(=O)(=O)c2cccc3scnc23)cc1)N1CCC(O)(c2sncc2Cl)CC1 | – | < 100 | < 100 | < 100
44 | O=C(c1ccc(NS(=O)(=O)c2cccc3scnc23)cc1)N1CCC(O)(CC2CCC2)CC1 | – | < 100 | < 100 | < 100
45 | O=C(c1ccc(NS(=O)(=O)c2cccc3scnc23)cc1)N1CCC(O)(CCC=C(F)F)CC1 | – | < 100 | < 100 | < 100
46 | O=C(c1ccc(NS(=O)(=O)c2cccc3c(O)ncnc23)cc1)N1CCC(O)(c2cccc(F)c2F)CC1 | – | < 100 | < 100 | < 100
47 | O=C(c1ccc(NS(=O)(=O)c2cccc3cccnc23)cc1)N1CCC(O)(Cc2cccnc2F)CC1 | – | < 100 | < 100 | < 100
48 | O=C(c1ccc(NS(=O)(=O)c2cccc3cccnc23)c(F)c1)N1CCC(O)(Cc2ccccc2)CC1 | – | < 100 | < 100 | < 100
49 | O=C(c1ccc(NS(=O)(=O)c2cccc3cccnc23)cc1)N1CCC(O)(Cc2cccc(F)n2)CC1 | – | < 100 | < 100 | < 100
50 | O=C(c1ccc(NS(=O)(=O)c2cccc3cccnc23)cc1)N1CCC(O)(c2cc(F)ccc2Cl)CC1 | – | < 100 | < 100 | < 100
51 | O=C(c1ccc(NS(=O)(=O)c2cccc3cc(F)cnc23)cc1)N1CCC(O)(c2ccccc2)CC1 | – | < 100 | < 100 | < 100
52 | Cc1cccnc1C1(O)CCN(C(=O)c2ccc(NS(=O)(=O)c3cccc4cccnc34)cc2)CC1 | – | < 100 | < 100 | < 100
53 | O=C(c1ccc(NS(=O)(=O)c2cccc3scnc23)cc1)N1CCC(O)(CCCC(F)(F)F)CC1 | – | < 100 | < 100 | < 100
54 | Cc1ncccc1C1(O)CCN(C(=O)c2ccc(NS(=O)(=O)c3cccc4cccnc34)cc2)CC1 | – | < 100 | < 100 | < 100
55 | O=C(c1ccc(NS(=O)(=O)c2cccc3scnc23)cc1)N1CCC(O)(c2ccccc2Cl)CC1 | – | < 100 | < 100 | < 100
56 | O=C(c1ccc(NS(=O)(=O)c2cccc3cccnc23)cc1)N1CCC(O)(CC2CC2(F)F)CC1 (stereo not drawn) | – | < 100 | < 100 | < 100
57 | CC(C)CC1(O)CCN(C(=O)c2ccc(NS(=O)(=O)c3cncc4cccnc34)cc2)CC1 | – | < 100 | < 100 | < 100
58 | O=C(c1ccc(NS(=O)(=O)c2cccc3cccnc23)cc1Cl)N1CCC(O)(c2ccccc2Cl)CC1 | – | < 100 | < 100 | < 100
59 | CS(=O)(=O)c1ccccc1C1(O)CCN(C(=O)c2ccc(NS(=O)(=O)c3cccc4cccnc34)cc2)CC1 | – | < 100 | < 100 | < 100
60 | O=C(c1ccc(NS(=O)(=O)c2cccc3cccnc23)cc1)N1CCC(O)(c2ccc(F)cc2)CC1 | – | < 100 | < 100 | < 100
